Patent publication US10626145B2, “Peptide with anti-obesity and anti-diabetes activity and use thereof” (CAREGEN CO., LTD., priority 2015, dated 2020)

Legend:
aP2 = assay: RT-PCR expression of adipogenic marker aP2 in 3T3-L1; format: cell-based, mouse; details: for expression level of adipogenic marker aP2 (individual peptides): 3T3-L1, incubated for three days
Method: (§1) 3T3-L1 cells (pre-adipocytes) were seeded at a density of 3×10^5 cells/well into 6-well plates. […] Thereafter, the cells were harvested and treated with an RNA extraction solution (Easy Blue, Intron) to prepare RNA from which cDNA was then synthesized using an RT premix (Intron). PCR was performed using primers for […] markers (PPARγ, ACC, and aP2), and a PCR premix (Intron).
(§2) Target-specific primer sequences for PCR of adipogenic markers were as follows: PPARγ forward primer sequence, 5′-[…]-3′ and PPARγ reverse primer, 5′-[…]-3′ (annealing temperature, 60° C.); ACC forward primer sequence, 5′-[…]-3′ and ACC reverse primer, 5′-[…]-3′ (annealing temperature, 60° C.); aP2 forward primer sequence, 5′-[…]-3′ and aP2 reverse primer, 5′-[…]-3′ (annealing temperature, 60° C.)
(§3) PCR products were each loaded in a volume of 5 μl into a 1% agarose gel, and electrophoresed, followed by identifying bands in a Gel-Doc.

[1] = test system: 3T3-L1 cells (pre-adipocytes); assay: Suppression of lipid accumulation in pre-adipocytes (Oil Red O staining); format: cell-based, mouse; details: 3T3-L1, various concentrations, differentiation induced for 10 days
Method: The pre-adipocytes 3T3-L1 cells were grown to confluence and then incubated for two days with various concentrations of the peptides in a differentiation medium containing 10 μg/ml insulin, 0.1 μM dexamethasone, and 0.5 μM IBMX. The medium was exchanged every two days with a medium containing 10 μg/ml insulin. After differentiation was induced for 10 days, the generation of droplet in the cells was examined by Oil Red O staining. The prepared 3T3-L1 adipocytes were washed with PBS, fixed with 3.7% formalin for one hour, and washed with 60% isopropanol. The resulting cells were dyed with Oil Red O reagent at room temperature for 20 min. After removal of the Oil Red O reagent, the cells were washed three times with distilled water, and observed under a phase-contrast microscope. For quantitative analysis, fats were extracted from the cells using 100% isopropanol, and the cells were transferred in an amount of 200 μl/well into 96-well plates and measured for optical density at 500 nm using an ELISA reader.

[2] = test system: DB/DB diabetes-induced mice; assay: Blood sugar over time in DB/DB diabetes-induced mice given individual peptides; format: in vivo, mouse; details: starved 16 hours, fed 30 min, then peptide administered
Method: In addition, after starvation for 16 hours, DB/DB diabetes-induced mice were fed for 30 min and then administered with the peptides. Blood sugar levels were measured over times.

insulin = assay: Western blotting of insulin expression in 3T3-L1; format: cell-based, mouse; details: 3T3-L1, 10 ng-1 μg/ml, 14 days; dose-dependent
Method: (§4) 3T3-L1 cells (pre-adipocytes) were seeded at a density of 3×10^5 cells/well into 6-well plates and grown for 24 hours. Subsequently, the cells were incubated with various concentrations (10 ng-1 μg/ml) of the peptides for 14 days in a 37° C. incubator. Proteins were extracted from cell lysates which were obtained by treatment with cell lysis buffer, quantitatively analyzed, and subjected to Western blotting using an anti-IGF-1 antibody, which is an antibody against the lipolytic marker, and an insulin antibody (Santa Cruz Biotechnology, USA).

IGF-1 = assay: Western blotting of IGF-1 expression in 3T3-L1; format: cell-based, mouse; details: 3T3-L1, 10 ng-1 μg/ml, 14 days; dose-dependent
Method: as §4

ACC = assay: RT-PCR expression of adipogenic marker ACC in 3T3-L1; format: cell-based, mouse; details: 3T3-L1, three days; complex 0.1, 1, 10 μg/ml; TNFα 100 ng/ml
Method: as §1, §2, §3

[3] = test system: DIO (diets induced obesity) models; assay: Weight loss and adipogenesis suppression in high-fat diet-fed animal (DIO), 12 weeks; format: in vivo, mouse; details: for Weight: intraperitoneal injection; for Weight (%): relative to initial weight
Method: Models DIO (diets induced obesity), which had become obese by feeding high-fat diets thereto, were used for anti-obesity experiments in which TNFα 5 μg/ml was used as a positive control. For a control, a general diet, not a high-fat diet, was fed. In the experiment, a high-fat diet was fed for 12 weeks while the peptide complex or the positive control was applied. During the experiment, the weight was monitored. TNFα and the anti-obesity compounds were intraperitoneally injected at PM 3-4 o'clock every week for 12 weeks. Weights and meal sizes were measured just before the initial injection and then regularly at intervals of one week. Blood samples were taken from tail veins after the experiments of drug injection and measured for blood sugar levels, using Accu-Check Active (Roche) and analyzed for cholesterol levels, using Cholesterol calculation Kit (BioVision). Adipose tissues are divided into white fat and brown fat by color and into subcutaneous fat, abdominal fat, mesentery fat (visceral fat), and epididymal fat by tissue. After lipoectomy, the fats thus obtained from the tissues were observed. For histological examination, the fats were fixed with 10% neutral buffered formalin, embedded in paraffin blocks, cut into 5 μm-thick sections, and dyed with hematoxylin and eosin. To analyze the phosphorylation of the lipolytic marker HSL, fluorescent staining was carried out with an anti-pHSL antibody. A tissue sample was made, mounted on glycerine jell mounting media, and covered with a cover glass. The tissues were observed under a microscope (Nikon, TS100), with a built-in digital camera taking images thereof.

PPARγ = assay: RT-PCR expression of adipogenic marker PPARγ in 3T3-L1; format: cell-based, mouse; details: 3T3-L1, three days; complex 0.1, 1, 10 μg/ml; TNFα 100 ng/ml
Method: as §1, §2, §3

For ASYLPHPWFS (Peptide 5) [SEQ ID NO: 5], the “expression level of adipogenic marker aP2 (individual peptides)” value (from here on “expression level”) (aP2) was “decreased”, the “extent of fat (lipid) accumulation in cells, Oil red O staining” value (shortened to “extent of fat (lipid) accumulation”) [1] was “decreased” and the “blood sugar levels over time” value [2] was “decrease in a time-dependent manner”.

In the case of KGASTGWMA (Peptide 3) [SEQ ID NO: 3], the “expression level” value (aP2) is reported as “decreased”, the “extent of fat (lipid) accumulation” value [1] is reported as “decreased” and the “blood sugar levels over time” value [2] is reported as “decrease in a time-dependent manner”.

“NH2-Leu-Lys-Thr-Arg-Asn-COOH (H-LKTRN-OH) [SEQ ID NO: 1]” was tested, and the “expression level” value (aP2) was “decreased”, the “extent of fat (lipid) accumulation” value [1] was “decreased” and the “blood sugar levels over time” value [2] was “decrease in a time-dependent manner”.

For SDLRRLEMYS (Peptide 7) [SEQ ID NO: 7], the expression of insulin (insulin) was “increased” and the “expression of IGF-1” value (IGF-1) was “increased”.

TNFα was tested, and the “expression of adipogenic marker ACC” value (ACC) was “decrease”, the “Weight” value ([3]; 0 w) was 22.41 g and the “Weight (%)” value ([3]; 0 w) was 100%. For the same substance, the “Weight” value ([3]; 1 w) was 23 g, the “Weight (%)” value ([3]; 1 w) was 102.6% and the “Weight” value ([3]; 2 w) was 26.12 g. The “Weight (%)” value ([3]; 2 w) was 116.6%, the “Weight” value ([3]; 3 w) was 27.45 g and the “Weight (%)” value ([3]; 3 w) was 122.5%. The “Weight” value ([3]; 4 w) was 30.51 g, the “Weight (%)” value ([3]; 4 w) was 136.1% and the “Weight” value ([3]; 5 w) was 32.76 g. The “Weight (%)” value ([3]; 5 w) was 146.2%, the “Weight” value ([3]; 6 w) was 33.49 g and the “Weight (%)” value ([3]; 6 w) was 149.4%. The “Weight” value ([3]; 7 w) was 35.14 g, the “Weight (%)” value ([3]; 7 w) was 156.8% and the “Weight” value ([3]; 8 w) was 37.15 g. The “Weight (%)” value ([3]; 8 w) was 165.8%, the “Weight” value ([3]; 9 w) was 38.97 g and the “Weight (%)” value ([3]; 9 w) was 173.9%. The “Weight” value ([3]; 10 w) was 40.39 g, the “Weight (%)” value ([3]; 10 w) was 180.2% and the “Weight” value ([3]; 11 w) was 41.35 g. The “Weight (%)” value ([3]; 11 w) was 184.5%, the “Weight” value ([3]; 12 w) was 43.91 g and the “Weight (%)” value ([3]; 12 w) was 195.9%. The “expression of adipogenic marker PPARγ” value (PPARγ) was “decrease” and the “expression of adipogenic marker aP2” value (aP2; 3T3-L1, three days, complex 0.1, 1, 10 μg/ml, TNFα 100 ng/ml) was “decrease”.
